Here are results for two compounds from US11298347B2, “Methods of diagnosing and treating Tourette syndrome” (THE CHILDREN'S HOSPITAL OF PHILADELPHIA, priority 2015, dated 2022).

The conditions of data set [1]: cited from earlier work.
A short description of data set [2]: open-label Phase Ib clinical trial of NFC-1 in adolescent ADHD subjects with a genetic alteration in an mGluR network gene. Type of data set: in vivo, human. The procedure:
An open-label Phase Ib clinical trial was conducted to investigate the safety, pharmacokinetics and efficacy of NFC-1 (fasoracetam monohydrate) in adolescent subjects between the ages of 12 and 17 previously diagnosed with ADHD who also had at least one genetic alteration in an mGluR network gene.
The study included 30 ADHD subjects who were between ages 12 and 17, of any ancestry or race, of weight within the 5th to 95th percentile for their age, and otherwise judged to be in good medical health. […] Seventeen of the 30 subjects have a CNV in a tier 1 mGluR network gene, while 7 subjects have a CNV in a tier 2 gene and 6 in a tier 3 gene.
Exclusion criteria comprised subjects suffering from a clinically significant illness, either mental or physical, that, in the investigator's opinion, might confound the results of the study or that might prevent them from completing the study, subjects that are pregnant or nursing, subjects that test positive for illicit drugs of that have a history of drug abuse, subjects that consume alcoholic beverages, or subjects for which the investigator is otherwise concerned regarding their compliance or suitability.
NFC-1 capsules of either 50 mg or 200 mg comprising fasoracetam monohydrate as active ingredient and placebo capsules comprising microcellulose were used for the study. The design of the trial was a phone screening (1 day), enrollment phase (1 to 2 days), a wash-out phase for subjects currently on ADHD medications (1-14 days), pharmacokinetic (PK) assessment (2 days), followed by a dose-escalation phase (35 days) and a follow-up phone visit approximately four weeks after the last dose, for a maximum of 127 days. All ADHD medications were discontinued during the wash-out phase prior to the study. The wash-out period for stimulants was 2-3 days and that for atomoxetine or noradrenergic agonists was 10-12 days. No new ADHD medications were started during the study.
A dose-escalation phase of the trial ran over a 5-week period, after the initial wash-out period and the PK and initial safety assessments. During week 1, all subjects were administered placebo capsules twice daily. After one week of placebo treatment, patients were started on 50 mg bid NFC-1 for 1 week. If safety and responsiveness data from prior dose level of fasoracetam indicated it was appropriate, subjects were then escalated to the next higher dose (100, 200, or 400 mg).
Of the 30 trial subjects, 3 received a maximum dose of 100 mg, 9 received a maximum dose of 200 mg, and the remaining 18 received a maximum dose of 400 mg.

The conditions of data set [3]: prior human studies; cited from earlier work.
Data set [4] relates to adenylate cyclase activity. As to conditions: Oka 1997; cited from earlier work.
In data set [5] the test system is group I and group II/III mGluRs. As to conditions: in vitro studies (Hirouchi 2000); cited from earlier work.

For the compound `O=C1CC[C@H](C(=O)N2CCCCC2)N1` [NFC-1, fasoracetam monohydrate], the safety and tolerability entry in data set [1] (Phase I-III clinical trials) is “generally safe and well tolerated”. Besides, in data set [1] (Phase III data, cerebral infarct patients and adult dementia patients with cerebrovascular diseases), the “effects on psychiatric symptoms” value is “beneficial effects”. Besides, the efficacy in dementia entry in data set [1] (Phase III trials, dementia-related cognitive impairment) is given as “did not show sufficient efficacy”. Also, the “OCD symptoms during therapy” value in data set [2] (all eight subjects with symptoms of OCD) is “improved”. The dermatillomania symptoms entry in data set [2] (one subject with OCD and history of ear scratching) is on record as “reduced”. Moreover, the “bleeding ulcer from ear scratching” value in data set [2] (one subject with OCD and history of ear scratching (dermatillomania)) was “healed”. Besides, the tics during therapy entry in data set [2] (two individuals with history of recurrent tics, 50-400 mg bid dose escalation) is reported as “did not demonstrate tics”.
Broadly, the half-life is the time needed for the level to fall by half in the phase considered. Take `O=C1CC[C@H](C(=O)N2CCCCC2)N1` [Fasoracetam, fasoracetam]: the half-life in data set [3] was 5 to 6.5 h. Besides, in data set [4], the “adenylate cyclase activity by stimulating group II and III mGluRs” value is recorded as “may also inhibit adenylate cyclase activity”; the “adenylate cyclase activity through activation of group I mGluRs” value is “may stimulate adenylate cyclase activity”. In addition, the “stimulation of mGluRs” value in data set [5] was “can stimulate both group I and group II/III mGluRs”.
